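A five-concentration, 48-hour dose response in 96-well plates underlies each endpoint, interpolated linearly between surrounding concentrations. The concentration for 50% growth inhibition is given as GI50.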 The source made the active and inactive calls. No stated cut-off is given here; in the data, active = GI50 up to about 1.1 µM and inactive = higher.
Columns and labels:
Experiment in all cases: NCI-60 cell line screen, 48 h
[1] = tested on: SK-MEL-5
[2] = tested on: MDA-N
[3] = tested on: HCT-15
[4] = tested on: Hs-578T
[5] = tested on: NCI-H23
[6] = tested on: HCT-116
[7] = tested on: SF-295
[8] = tested on: MOLT-4
[9] = tested on: SK-MEL-28
[10] = tested on: A498
[11] = tested on: HT-29
[12] = tested on: SF-539
[13] = tested on: NCI-H522
[14] = tested on: Malme-3M
[15] = tested on: CAKI-1
[16] = tested on: SNB-75
[17] = tested on: NCI-H460
[18] = tested on: SK-MEL-2
[19] = tested on: OVCAR-3
[20] = tested on: A549
[21] = tested on: SW-620
[22] = tested on: IGROV-1
[23] = tested on: UO-31
[24] = tested on: COLO 205
[25] = tested on: 786-0
[26] = tested on: SNB-19
[27] = tested on: OVCAR-8
[28] = tested on: MDA-MB-231
[29] = tested on: DU-145
[30] = tested on: HCC 2998
[31] = tested on: MCF7
[32] = tested on: RPMI-8226
[33] = tested on: PC-3
[34] = tested on: K562
[35] = tested on: OVCAR-5
[36] = tested on: SF-268
[37] = tested on: EKVX
[38] = tested on: CCRF-CEM
[39] = tested on: UACC-62
[40] = tested on: BT-549
[41] = tested on: OVCAR-4
[42] = tested on: TK-10
[43] = tested on: UACC-257
[44] = tested on: HOP-92
[45] = tested on: SR
[46] = tested on: NCI-H226
[47] = tested on: SN12C
[48] = tested on: T47D
[49] = tested on: MDA-MB-435
[50] = tested on: U-251
[51] = tested on: HL-60
[52] = tested on: KM12
[53] = tested on: SK-OV-3
[54] = tested on: NCI/ADR-RES
[55] = tested on: RXF 393
[56] = tested on: M14
[57] = tested on: ACHN
[58] = tested on: LOX IMVI
[59] = tested on: HOP-62

Measured: GI50

C1OCN2c3nonc3N3COCN4c5nonc5N1C2C43 (stereo unspecified)
65.9 µM: [3]
inactive: [1] > 100 µM | [2] 62.8 µM | [4] > 100 µM | [5] > 100 µM | [6] 57.4 µM | [7] > 100 µM | [8] 50.1 µM | [9] > 100 µM | [10] > 100 µM | [11] 31.1 µM | [12] > 100 µM | [13] > 100 µM | [14] > 100 µM | [15] > 100 µM | [16] > 100 µM | [17] > 100 µM | [18] > 100 µM | [19] > 100 µM | [20] > 100 µM | [21] > 100 µM | [22] > 100 µM | [23] > 100 µM | [24] 40.3 µM | [25] > 100 µM | [26] > 100 µM | [27] > 100 µM | [28] > 100 µM | [29] > 100 µM | [30] 68.4 µM | [31] 49.1 µM | [32] > 100 µM | [33] > 100 µM | [34] 78 µM | [35] > 100 µM | [36] > 100 µM | [37] > 100 µM | [38] 77.8 µM | [39] > 100 µM | [40] > 100 µM | [41] > 100 µM | [42] > 100 µM | [43] > 100 µM | [44] > 100 µM | [45] > 100 µM | [46] > 100 µM | [47] > 100 µM | [48] > 100 µM | [49] > 100 µM | [50] > 100 µM | [51] 83.4 µM | [52] 49.2 µM | [53] > 100 µM | [54] > 100 µM | [55] > 100 µM | [56] > 100 µM | [57] > 100 µM

O=C(Nc1ccccc1)N(CCCCN(Cc1ccccc1)C(=O)Nc1ccccc1)Cc1ccccc1
inactive: [1] > 100 µM | [2] > 100 µM | [4] > 100 µM | [5] > 100 µM | [6] 30.1 µM | [7] > 100 µM | [8] 52.7 µM | [9] > 100 µM | [10] > 100 µM | [11] 74.5 µM | [13] 95.3 µM | [14] > 100 µM | [15] > 100 µM | [16] 27.7 µM | [58] > 100 µM | [17] > 100 µM | [18] > 100 µM | [19] > 100 µM | [20] 28.8 µM | [21] > 100 µM | [22] > 100 µM | [23] 40 µM | [24] > 100 µM | [59] > 100 µM | [25] 95.3 µM | [26] 38 µM | [27] > 100 µM | [28] 48.6 µM | [29] > 100 µM | [30] > 100 µM | [31] 92 µM | [32] > 100 µM | [33] > 100 µM | [34] 30.8 µM | [35] > 100 µM | [36] > 100 µM | [37] 72.3 µM | [38] > 100 µM | [39] > 100 µM | [40] > 100 µM | [41] 75.5 µM | [42] > 100 µM | [43] > 100 µM | [44] > 100 µM | [45] 44.3 µM | [46] > 100 µM | [47] > 100 µM | [48] 25.9 µM | [49] > 100 µM | [50] > 100 µM | [51] > 100 µM | [52] > 100 µM | [53] > 100 µM | [54] > 100 µM | [55] 43.8 µM | [56] > 100 µM | [57] > 100 µM
> 100 µM: [3]

N=C(N)Nc1ccc(CC(N)NCC(=O)O)cc1 (stereo unspecified)
> 25 µM: [3]
inactive: [1] > 25 µM | [2] > 25 µM | [4] > 25 µM | [5] > 25 µM | [6] > 25 µM | [7] > 25 µM | [8] > 25 µM | [9] > 25 µM | [10] > 25 µM | [11] > 25 µM | [13] > 25 µM | [14] > 25 µM | [15] > 25 µM | [16] > 25 µM | [58] > 25 µM | [18] > 25 µM | [19] > 25 µM | [20] > 25 µM | [21] > 25 µM | [22] > 25 µM | [23] > 25 µM | [24] > 25 µM | [59] > 25 µM | [25] > 25 µM | [27] > 25 µM | [28] > 25 µM | [29] > 25 µM | [30] > 25 µM | [31] > 25 µM | [32] > 25 µM | [33] > 25 µM | [34] > 25 µM | [35] > 25 µM | [36] > 25 µM | [37] > 25 µM | [38] > 25 µM | [39] > 25 µM | [40] > 25 µM | [41] > 25 µM | [42] > 25 µM | [43] > 25 µM | [44] > 25 µM | [45] 20 µM | [46] > 25 µM | [47] > 25 µM | [48] > 25 µM | [49] > 25 µM | [50] > 25 µM | [51] > 25 µM | [52] > 25 µM | [53] > 25 µM | [54] > 25 µM | [55] > 25 µM | [56] > 25 µM | [57] > 25 µM

— ChEMBL document CHEMBL1201862, “PubChem BioAssay data set” (2004)
